Columns and labels:
[1] = test system: horse serum diluted with physiological common-salt solution, 2 mM CaCl2 (simulated dentinal fluid); test: Measurement of the protein precipitation (weight of dried precipitate); type: biochemical; conditions: for Precipitate: average of 5 measurements
Experimental: Furthermore, acids which also have calcium-precipitating properties in addition to protein-precipitating properties are particularly preferred. Protein and calcium-precipitating properties are detected in standardized tests. Protein precipitation is measured as described in Example 6, the acids to be examined in the solution described in Example 5 (2nd component) being present in a concentration of 0.2 M. The acid-containing solution is mixed with the protein solution described in Example 6 and the mass of the obtained precipitate is determined. According to the invention, acids which yield a pellet weight of >25 mg, preferably >30 mg and in particular >40 mg are preferred. The upper limit of the pellet weight is determined by the masses of the components used. Acids which yield a quantitative precipitation under the described conditions are particularly suitable according to the invention.
Furthermore, CaCl2 (2 mM) was added to the diluted protein solution in order to adjust the calcium-ion concentration to that of dentinal fluid.
500 μl of the protein solution was then reacted with […] of the composition to be tested and the mixture was left to stand for 30 minutes at room temperature, centrifuged and the obtained precipitates dried at 75° C. and weighed.
For protein precipitation, the solution (2nd component) described in Example 5 was used which was reacted with phosphonic acid in concentrations of 10 mM to 200 mM (cf. Table 1). 5 precipitations per concentration were carried out and then the average of the determinations was calculated.

## C=C(COCCP(=O)(O)O)C(=O)O [Example 1, 2-[4-(dihydroxyphosphoryl)-2-oxa-butyl]-acrylic acid]
[1]; 150 mM acid
  Protein precipitation (in words): quantitative
[1]; acid concentration 10 mM in solution (2nd component) of Example 5
  Precipitate: 55.3 mg
[1]; acid concentration 25 mM in solution (2nd component) of Example 5
  Precipitate: 58.2 mg
[1]; acid concentration 50 mM in solution (2nd component) of Example 5
  Precipitate: 58.8 mg
[1]; acid concentration 75 mM in solution (2nd component) of Example 5
  Precipitate: 69.1 mg
[1]; acid concentration 100 mM in solution (2nd component) of Example 5
  Precipitate: 70.8 mg
[1]; acid concentration 150 mM in solution (2nd component) of Example 5
  Precipitate: 74.2 mg
[1]; acid concentration 200 mM in solution (2nd component) of Example 5
  Precipitate: 72.3 mg
other
  melting point: 119 to 120 °C

Source: patent US20040062743A1, “Acid-containing desensitization agents for teeth” (priority 2002, published 2004)
